Type in all cases: functional
In test [1] the test system is Tetranychus urticae. Put plainly: Acaricidal activity against Tetranychus urticae (two-spotted spider mite) assessed as mite mortality at 500 ppm relative to untreated control.
The subject of test [2] is Tetranychus urticae. Kind of test: Acaricidal activity against Tetranychus urticae (two-spotted spider mite) assessed as mite mortality at 50 ppm relative to untreated control.
The subject of test [3] is Tetranychus urticae. Put plainly: Acaricidal activity against Tetranychus urticae (two-spotted spider mite) assessed as mite mortality at 200 ppm relative to untreated control.

Each structure is given as a SMILES string.

With `Cn1nc(C2CC2)c(Cl)c1C(=O)Nc1nnc(C(F)(F)F)s1`, the mortality (as a rule, the percentage killed) at 500 ppm in test [1] is over 80%. Turning to `Cn1nc(C(C)(C)C)c(Cl)c1C(=O)Nc1nnc(C(F)(F)C(F)(F)C(F)(F)C(F)(F)C(F)(F)F)s1`, the mortality at 50 ppm in test [2] is over 80%.

As for `Cn1nc(C(C)(C)C)c(Cl)c1C(=O)Nc1nnc(C(F)F)s1`, the mortality at 500 ppm in test [1] is under 80%. In the case of `Cn1nc(C(C)(C)C)c(Cl)c1C(=O)Nc1nnc(C(F)(F)F)s1`, the mortality at 50 ppm in test [2] is over 80%. With `CCc1nn(C)c(C(=O)Nc2nnc(C(F)(F)F)s2)c1Cl`, the mortality at 200 ppm in test [3] is over 80%. Turning to `Cn1nc(C(C)(C)C)c(Cl)c1C(=O)Nc1nnc(C(F)(F)C(F)F)s1`, in test [1], the mortality at 500 ppm was under 80%. On to `CCCc1nn(C)c(C(=O)Nc2nnc(C(F)(F)F)s2)c1Cl`, for which the mortality at 200 ppm in test [3] was over 80%. With `Cn1nc(C(C)(C)C)cc1C(=O)Nc1nnc(C(F)(F)F)s1`, the mortality at 500 ppm in test [1] is under 80%. `Cn1nc(C(C)(C)C)c(Cl)c1C(=O)Nc1nnc(C(F)(F)C(F)(F)C(F)(F)F)s1`: the mortality at 50 ppm in test [2] is over 80%. Take `Cn1nc(C(C)(C)C)c(Cl)c1C(=O)Nc1nnc(C(F)(F)C(F)(F)C(F)(F)C(F)(F)C(F)(F)C(F)(F)F)s1`: the mortality at 500 ppm in test [1] is under 80%. Take `Cn1nc(C(C)(C)C)c(Cl)c1C(=O)Nc1nnc(C(F)(F)C(F)(F)F)s1`: in test [2], the mortality at 50 ppm was over 80%. `Cc1nc(C(C)C)sc1C(=O)Nc1nnc(C(F)(F)C(F)(F)C(F)(F)F)s1`: in test [1], the mortality at 500 ppm was under 80%.

Regarding `Cn1nc(C(C)(C)C)c(Cl)c1C(=O)Nc1nnc(C(F)(F)C(F)(F)C(F)(F)C(F)(F)F)s1`, the mortality at 50 ppm in test [2] is over 80%.

In the case of `CCCCc1nn(C)c(C(=O)Nc2nnc(C(F)(F)F)s2)c1Cl`, the mortality at 500 ppm in test [1] is over 80%. Still for that read-out and setting: for `Cc1nc(C)c(C(=O)Nc2nnc(C(F)(F)C(F)(F)C(F)(F)F)s2)s1` the value was over 80%.

Turning to `Cc1nc(C(C)(C)C)sc1C(=O)Nc1nnc(C(F)(F)C(F)(F)F)s1`, in test [2], the mortality at 50 ppm was over 80%. For `Cc1nc(C(C)(C)C)sc1C(=O)Nc1nnc(C(F)(F)C(F)(F)C(F)(F)C(F)(F)F)s1`, in test [2], the mortality at 50 ppm is over 80%. `Cc1nc(C(C)(C)C)sc1C(=O)Nc1nnc(C(F)(F)C(F)(F)C(F)(F)F)s1`: in test [2], the mortality at 50 ppm was over 80%. Turning to `CCC(C)c1nn(C)c(C(=O)Nc2nnc(C(F)(F)F)s2)c1Cl` (stereo unspecified), the mortality at 200 ppm in test [3] is over 80%. As for `Cn1nc(C(C)(C)C)c(Br)c1C(=O)Nc1nnc(C(F)(F)F)s1`, the mortality at 200 ppm in test [3] is over 80%. `Cc1nn(C)c(C(=O)Nc2nnc(C(F)(F)F)s2)c1Cl`: the mortality at 200 ppm in test [3] is over 80%. As for `CC(C)c1nn(C)c(C(=O)Nc2nnc(C(F)(F)F)s2)c1Cl`, the mortality at 200 ppm in test [3] is over 80%. Take `Cn1nc(C(C)(C)C)c(I)c1C(=O)Nc1nnc(C(F)(F)F)s1`: the mortality at 500 ppm in test [1] is under 80%.

Regarding `CC(C)Cc1nn(C)c(C(=O)Nc2nnc(C(F)(F)F)s2)c1Cl`, the mortality at 200 ppm in test [3] is over 80%. Consider `Cc1nc(C(C)(C)C)sc1C(=O)Nc1nnc(C(F)(F)F)s1`, for which, in test [1], the mortality at 500 ppm was under 80%. In the case of `CCc1nc(C)c(C(=O)Nc2nnc(C(F)(F)C(F)(F)C(F)(F)F)s2)s1`, the mortality at 500 ppm in test [1] was under 80%.

These data come from ChEMBL document CHEMBL3046316, “Synthesis and Acaricidal Activity of N-(1,3,4-Thiadiazol-2-yl)pyrazole-5-carboxamides and N-(1,3,4-Thiadiazol-2-yl)thiazole-5-carboxamides” (2003).
